Compound: CP(=O)(O)CC(F)CN (stereo not shown)
- melting point: 78 to 84 °C

From US6596711B1, “(Aminopropyl)methylphosphinic acids” (AstraZeneca AB, priority 1999, dated 2003)
